Results as given in PubChem BioAssay AID276 (DTP/NCI, 2004).
Where “and” joins values, the source holds several entries; their conditions need not be identical. Equal entries are not always repeated. Toxic doses and inconclusive results are not listed.

System: B6C3F1 mice, Lewis lung carcinoma iv, survival T/C
Assay: NCI In Vivo Anticancer Drug Screen. Data for tumor model Lewis Lung Carcinoma (intravenous) in B6C3F1 mice
Conditions: endpoint: median survival time, higher = longer survival
Summary of the method: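 Tumors were transplanted into mice, which were then dosed with compound or vehicle. Survival was recorded in each group, and the treated figure was divided by the control figure.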

[1] = dose: 25.0 mg/kg/injection, schedule: Q01DX009 (ip), vehicle: Klucel (hydroxypropylcellulose) (HPC)
[2] = dose: 50.0 mg/kg/injection, schedule: Q01DX009 (ip), vehicle: Klucel (hydroxypropylcellulose) (HPC)
[3] = dose: 100.0 mg/kg/injection, schedule: Q01DX009 (ip), vehicle: Klucel (hydroxypropylcellulose) (HPC)
[4] = dose: 200.0 mg/kg/injection, schedule: Q01DX009 (ip), vehicle: Klucel (hydroxypropylcellulose) (HPC)
[5] = dose: 12.5 mg/kg/injection, schedule: Q01DX009 (ip), vehicle: saline
[6] = dose: 50.0 mg/kg/injection, schedule: Q01DX009 (ip), vehicle: saline
[7] = dose: 25.0 mg/kg/injection, schedule: Q01DX009 (ip), vehicle: saline
[8] = dose: 100.0 mg/kg/injection, schedule: Q01DX009 (ip), vehicle: saline
[9] = dose: 200.0 mg/kg/injection, schedule: Q01DX009 (ip), vehicle: saline
[10] = dose: 400.0 mg/kg/injection, schedule: Q01DX009 (ip), vehicle: saline
[11] = dose: 12.5 mg/kg/injection, schedule: Q01DX009 (ip), vehicle: suspension in saline
[12] = dose: 25.0 mg/kg/injection, schedule: Q01DX009 (ip), vehicle: suspension in saline
[13] = dose: 50.0 mg/kg/injection, schedule: Q01DX009 (ip), vehicle: suspension in saline

SMILES: CN(C)C(=O)SC1=C(c2c(Cl)cccc2Cl)C(=O)c2ccccc21
- T/C [1]: 102 % of control
- T/C [2]: 110 % of control
- T/C [3]: 105 % of control
- T/C [4]: 108 % of control

SMILES: CCC1OC(OC)C=CC1=O (stereo unspecified)
- T/C [5]: 97 % of control
- T/C [6]: 97 % of control

SMILES: Cc1ccccc1CN1C2=NCCN2C(=O)C2=C1CCN(S(=O)(=O)c1ccc(Cl)c(S(N)(=O)=O)c1)C2
- T/C (dose: 12.0 mg/kg/injection, schedule: Q01DX009 (ip), vehicle: saline): 103 % of control
- T/C [7]: 99 % of control
- T/C [6]: 94 % of control
- T/C [8]: 99 % of control and 101 % of control
- T/C [9]: 96 % of control and 102 % of control
- T/C [10]: 94 % of control and 98 % of control

SMILES: CC(CN1CC(=O)NC(=O)C1)N1CC(=O)NC(=O)C1 (stereo unspecified)
- T/C (dose: 108.0 mg/kg/injection, schedule: Q04DX003 (ip), vehicle: Klucel (hydroxypropylcellulose) (HPC)): 109 % of control
- T/C (dose: 180.0 mg/kg/injection, schedule: Q04DX003 (ip), vehicle: Klucel (hydroxypropylcellulose) (HPC)): 119 % of control
- T/C (dose: 300.0 mg/kg/injection, schedule: Q04DX003 (ip), vehicle: Klucel (hydroxypropylcellulose) (HPC)): 158 % of control

SMILES: O=c1nc(-c2ccco2)sc(=O)[nH]1
- T/C (dose: 12.0 mg/kg/injection, schedule: Q01DX009 (ip), vehicle: Klucel (hydroxypropylcellulose) (HPC)): 112 % of control
- T/C [1]: 96 % of control
- T/C [2]: 105 % of control
- T/C [3]: 116 % of control
- T/C [4]: 104 % of control

SMILES: CC(C)(C)C1CCCCC1
- T/C (dose: 12.5 mg/kg/injection, schedule: Q01DX009 (ip), vehicle: Klucel (hydroxypropylcellulose) (HPC)): 92 % of control
- T/C [1]: 93 % of control
- T/C [2]: 108 % of control
- T/C [3]: 101 % of control
- T/C [4]: 103 % of control
- T/C (dose: 400.0 mg/kg/injection, schedule: Q01DX009 (ip), vehicle: Klucel (hydroxypropylcellulose) (HPC)): 96 % of control

SMILES: CC1(C)OCC2OC=CC(=O)C2O1 (stereo unspecified)
- T/C [7]: 98 % of control
- T/C [6]: 98 % of control
- T/C [8]: 105 % of control
- T/C [9]: 102 % of control
- T/C [10]: 104 % of control

SMILES: CCCCCCCCCCCCCCCCP(=O)(OCCOCCCCCC)OCCOCCCCCC
- T/C (dose: 6.25 mg/kg/injection, schedule: Q01DX009 (ip), vehicle: suspension in saline): 100 % of control
- T/C [11]: 100 % of control
- T/C [12]: 107 % of control
- T/C [13]: 102 % of control

SMILES: N/C(=N\OC(=O)Nc1ccc(CSc2ccc(Cl)cc2)o1)c1ccccn1
- T/C [1]: 102 % of control
- T/C [2]: 103 % of control
- T/C [3]: 99 % of control
- T/C [4]: 99 % of control

SMILES: COc1c(C)c2c(c(O)c1C/C=C(\C)CCC(=O)O)C(=O)OC2
- T/C (dose: 50.0 mg/kg/injection, schedule: Q01DX009 (ip), vehicle: saline with Tween-80): 91 % of control
- T/C (dose: 100.0 mg/kg/injection, schedule: Q01DX009 (ip), vehicle: saline with Tween-80): 91 % of control
- T/C (dose: 200.0 mg/kg/injection, schedule: Q01DX009 (ip), vehicle: saline with Tween-80): 98 % of control

SMILES: CN(CCN(C)C(=O)CCOS(C)(=O)=O)C(=O)CCOS(C)(=O)=O
- T/C [11]: 101 % of control
- T/C [12]: 97 % of control
- T/C [13]: 102 % of control
- T/C (dose: 100.0 mg/kg/injection, schedule: Q01DX009 (ip), vehicle: suspension in saline): 107 % of control

SMILES: O=CC(S)CO (stereo unspecified)
- T/C [5]: 105 % of control and 107 % of control
- T/C [7]: 95 % of control and 107 % of control
- T/C [6]: 101 % of control and 102 % of control
- T/C [8]: 101 % of control and 112 % of control
- T/C [9]: 96 % of control and 102 % of control
